Assay results published in article PMC8174486, “Synthesis and preliminary structure-activity relationship study of 3-methylquinazolinone derivatives as EGFR inhibitors with enhanced antiproliferative activities against tumour cells” (Journal of Enzyme Inhibition and Medicinal Chemistry, 2021).

Assays:
A431 cells = test: MTT antiproliferative assay, A431; format: cell-based, human; conditions: mean ± SD of three replicates
Protocol: (§1) A431 (Human epidermoid carcinoma cell line) cell, A549 (Human non-small cell lung cancer cell line) cell, MCF-7 (Human breast adenocarcinoma cell line) cell, and NCI-H1975 (Human non-small cell lung cancer cell line) cell were purchased from the Shanghai Cell Bank of the Chinese Academy of Sciences. NRK-52E (Normal rat kidney cell line) cell was donated by Guizhou Medical University.
(§2) The IC50 value was determined from a sigmoid dose − response curve using Graph-Pad Prism (GraphPad Software, San Diego, CA).

EGFR^wt-TK = biological target: T1, EGFR^wt-TK (Homo sapiens, UniProt P00533); test: In vitro EGFR^wt-TK assay (ELISA); format: biochemical; conditions: mean ± SD of three replicates
T1 construct: The recombinant EGFR^wt-TK and Antiphosphotyrosine mouse mAb were purchased from PTM Bio; purchased PTM Bio
Protocol: Enzymatic inhibition of synthesised compounds against wild type EGFR tyrosine kinase was determined with enzyme-linked immunosorbent assays (ELISAs) as our previous methods. The recombinant EGFR^wt-TK and Antiphosphotyrosine mouse mAb were purchased from PTM Bio. The IC50 value was determined from a sigmoid dose − response curve using Graph-Pad Prism (GraphPad Software, San Diego, CA).

NCI-H1975 cells = test: MTT antiproliferative assay, NCI-H1975; format: cell-based; conditions: Homo sapiens, mean ± SD of three replicates
Protocol: as §1, §2

A549 cells = test: MTT antiproliferative assay, A549; format: cell-based; conditions: Homo sapiens, mean ± SD of three replicates
Protocol: as §1, §2

MCF-7 cells [1] = test: MTT antiproliferative assay, MCF-7; format: cell-based; conditions: Homo sapiens, MCF7, mean ± SD of three replicates
Protocol: as §1, §2

[2] = Stability in mice plasma (HPLC); format: in vitro ADME; conditions: 37 °C, 60 min
Protocol: HPLC procedures and spectra
A 2.5 mL centrifuge tube was added 300 µL plasma derived from normal […] (7 weeks, male), and 30 µL compound A or compound 4d in ethanol (50 mM). The mixture was incubated at 37 °C for 60 min, and then treated with 300 µL of CH3CN, separated in centrifugation at 30000 rpm for 10 min. The supernatant was treated with the same procedure for another time and analyzed in HPLC using C18 column (4.6 mm x 250 mm) and mobile phase of CH3CN/H2O (90 : 10) with a flow rate of 1.5 mL/min.
Fig. S1 Metabolic stability in plasma of compound A
Fig. S2 Metabolic stability in plasma of compound 4d […]

MCF-7 cells [3] = test: Cell cycle analysis (flow cytometry); format: cell-based, human; conditions: MCF-7, 5 μM, 48 h
MCF-7 cells [4] = test: Cell apoptosis analysis (Annexin V-FITC/PI flow cytometry); format: cell-based, human; conditions: MCF-7, 5 μM, 48 h

T1 sequence (P00533 25-1210): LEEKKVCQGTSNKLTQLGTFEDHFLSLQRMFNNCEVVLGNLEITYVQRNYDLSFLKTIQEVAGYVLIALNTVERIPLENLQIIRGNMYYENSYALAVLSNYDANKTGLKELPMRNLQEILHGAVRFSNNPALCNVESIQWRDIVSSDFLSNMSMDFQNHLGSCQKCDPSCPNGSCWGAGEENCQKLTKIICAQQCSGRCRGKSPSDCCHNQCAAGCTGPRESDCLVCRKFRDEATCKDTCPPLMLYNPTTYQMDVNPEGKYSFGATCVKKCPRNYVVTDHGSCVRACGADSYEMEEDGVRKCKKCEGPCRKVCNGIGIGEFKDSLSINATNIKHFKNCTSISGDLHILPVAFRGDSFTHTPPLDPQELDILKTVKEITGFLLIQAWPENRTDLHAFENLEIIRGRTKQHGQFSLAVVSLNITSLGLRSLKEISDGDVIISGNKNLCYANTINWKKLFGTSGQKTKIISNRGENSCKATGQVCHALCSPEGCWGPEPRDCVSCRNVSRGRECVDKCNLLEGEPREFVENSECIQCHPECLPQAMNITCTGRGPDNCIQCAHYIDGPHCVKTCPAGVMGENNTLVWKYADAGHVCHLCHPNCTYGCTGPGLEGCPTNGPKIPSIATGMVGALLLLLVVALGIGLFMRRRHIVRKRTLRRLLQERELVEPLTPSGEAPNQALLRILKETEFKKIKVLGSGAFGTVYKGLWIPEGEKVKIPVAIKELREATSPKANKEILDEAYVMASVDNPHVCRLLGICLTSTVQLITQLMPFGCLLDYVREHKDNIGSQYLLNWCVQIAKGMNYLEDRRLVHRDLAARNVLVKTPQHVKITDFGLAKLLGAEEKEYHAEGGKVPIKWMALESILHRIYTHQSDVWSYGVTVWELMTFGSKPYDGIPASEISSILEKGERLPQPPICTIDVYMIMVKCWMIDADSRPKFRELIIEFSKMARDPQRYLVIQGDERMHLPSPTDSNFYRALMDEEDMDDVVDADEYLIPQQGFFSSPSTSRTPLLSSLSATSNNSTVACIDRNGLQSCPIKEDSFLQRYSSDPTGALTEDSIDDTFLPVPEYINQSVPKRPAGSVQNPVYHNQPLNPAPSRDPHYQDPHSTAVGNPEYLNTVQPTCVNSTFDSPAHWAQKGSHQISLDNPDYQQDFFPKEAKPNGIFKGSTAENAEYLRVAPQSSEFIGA

SMILES | melting point | IC50 (A431 cells; Homo sapiens, A-431, MTT) | IC50 (A431 cells; MTT) | IC50 (EGFR^wt-TK) | IC50 (NCI-H1975 cells) | IC50 (A549 cells) | IC50 (MCF-7 cells [1]) | stability in mice plasma ([2]; SD mice plasma) | percentage of cells in G2/M (MCF-7 cells [3]) | purity after incubation with mice plasma ([2]; Sprague Dawley (SD) mice plasma) | ratio of apoptotic cells (late) (MCF-7 cells [4])
Cn1c(COc2ccc(NC(=O)Nc3cccc(F)c3)cc2)nc2ccccc2c1=O [Compound 4g, 1-(3-Fluorophenyl)-3-(4-((3-methyl-4-oxo-3,4-dihydroquinazolin-2-yl)methoxy)phenyl)urea] | 195 to 196 °C | 8.34 µM | 8.35 ± 0.46 µM | 710 ± 93 nM | 10.2 ± 1.03 µM | 7.31 ± 0.59 µM | 10.7 ± 2.07 µM | – | – | – | –
Cn1c(COc2ccc(C(=O)Nc3cccc(F)c3)cc2)nc2ccccc2c1=O [Compound 4b, N-(3-Fluorophenyl)-4-((3-methyl-4-oxo-3,4-dihydroquinazolin-2-yl)methoxy)benzamide] | 196 to 197 °C | 8.72 ± 0.46 µM | – | 1630 ± 150 nM | 12.9 ± 1.44 µM | 9.08 ± 0.69 µM | 9.64 ± 0.88 µM | – | – | – | –
Cn1c(COc2ccc(/C=N/c3cccc(F)c3)cc2)nc2ccccc2c1=O [A, reference compound] | – | 17.7 ± 2.08 µM | – | – | 19.2 ± 3.02 µM | 17.9 ± 2.11 µM | 14.1 ± 1.85 µM | not stable | – | – | –
Cn1c(COc2ccc(/C=C/c3cccc(F)c3)cc2)nc2ccccc2c1=O [Compound 4c, (E)-2-((4-(3-Fluorostyryl)phenoxy)methyl)-3-methylquinazolin-4(3H)-one] | 160 to 162 °C | 6.79 ± 0.72 µM | – | 200 ± 41 nM | 6.44 ± 0.85 µM | 4.26 ± 0.57 µM | 6.04 ± 0.73 µM | – | – | – | –
Cn1c(COc2ccc(NC(=O)/C=C/c3ccc(F)c(F)c3)cc2)nc2ccccc2c1=O [Compound 4f, (E)-3-(3,4-Difluorophenyl)-N-(4-((3-methyl-4-oxo-3,4-dihydroquinazolin-2-yl)methoxy)phenyl)acrylamide] | 235 to 236 °C | 8.76 ± 0.74 µM | – | 380 ± 75 nM | 9.33 ± 0.78 µM | 8.46 ± 0.67 µM | 2.84 ± 0.22 µM | – | – | – | –
Cn1c(COc2ccc(NC(=O)c3ccc(F)c(F)c3)cc2)nc2ccccc2c1=O [Compound 4e, 3,4-Difluoro-N-(4-((3-methyl-4-oxo-3,4-dihydroquinazolin-2-yl)methoxy)phenyl)benzamide] | 248 to 249 °C | 3.53 ± 0.34 µM | – | 61 ± 7 nM | 7.18 ± 0.49 µM | 2.69 ± 0.32 µM | 0.96 ± 0.21 µM | – | – | – | –
Cn1c(COc2ccc(NC(=O)c3cccc(F)c3)cc2)nc2ccccc2c1=O [Compound 4d, 3-Fluoro-N-(4-((3-methyl-4-oxo-3,4-dihydroquinazolin-2-yl)methoxy)phenyl)benzamide] | 228 to 229 °C | 3.48 ± 0.49 µM | – | 53 ± 8 nM | 6.42 ± 0.47 µM | 2.55 ± 0.26 µM | 0.87 ± 0.14 µM | – | 10.38% | higher than 98% | 41.36%
COc1cc2ncnc(Nc3ccc(F)c(Cl)c3)c2cc1OCCCN1CCOCC1 [Gefitinib, reference compound] | – | – | – | – | – | – | – | – | 11.58% | – | –
Cn1c(COc2ccc(/C=C/C(=O)c3cccc(F)c3)cc2)nc2ccccc2c1=O [Compound 4a, (E)-2-((4–(3-(3-Fluorophenyl)-3-oxoprop-1-enyl)phenoxy)methyl)-3-methylquinazolin-4(3H)-one] | 208 to 209 °C | 9.32 ± 0.57 µM | – | 2710 ± 220 nM | 13.7 ± 1.61 µM | 8.63 ± 0.41 µM | 10.6 ± 1.03 µM | – | – | – | –
